Our source for the IC50 values is patent US8791267B2, “Biaryl PDE4 inhibitors for treating inflammatory, cardiovascular and CNS disorders” (Decode Genetics EHF, priority 2007, dated 2014).

Where a name gives a salt, the structure may show the parent alone. Read-outs that look alike come from different tables or passages of the source.

Assay [1] deals with PDE4B (Homo sapiens, UniProt Q07343). The assay can be described thus: In-vitro assay for PDE4 enzymes, real-time enzyme-coupled spectrophotometric assay, PDE4B Activity (Table 10). It is filed as biochemical.
The target of assay [2] is PDE4 (Homo sapiens, UniProt Q08499). Nature of the assay: In-vitro assay for PDE4 enzymes, real-time enzyme-coupled spectrophotometric assay (Table 9). It counts as biochemical.
[3] abbreviates: human PDE4B (hPDE4B), enzyme-coupled spectrophotometric assay, read-out: PDE4B Activity, hPDE4B.
The mark [4] stands for this setting: human PDE4D, activity class, Table 9, read-out: hPDE4D.

Sequence of PDE4 (Q08499 whole entry): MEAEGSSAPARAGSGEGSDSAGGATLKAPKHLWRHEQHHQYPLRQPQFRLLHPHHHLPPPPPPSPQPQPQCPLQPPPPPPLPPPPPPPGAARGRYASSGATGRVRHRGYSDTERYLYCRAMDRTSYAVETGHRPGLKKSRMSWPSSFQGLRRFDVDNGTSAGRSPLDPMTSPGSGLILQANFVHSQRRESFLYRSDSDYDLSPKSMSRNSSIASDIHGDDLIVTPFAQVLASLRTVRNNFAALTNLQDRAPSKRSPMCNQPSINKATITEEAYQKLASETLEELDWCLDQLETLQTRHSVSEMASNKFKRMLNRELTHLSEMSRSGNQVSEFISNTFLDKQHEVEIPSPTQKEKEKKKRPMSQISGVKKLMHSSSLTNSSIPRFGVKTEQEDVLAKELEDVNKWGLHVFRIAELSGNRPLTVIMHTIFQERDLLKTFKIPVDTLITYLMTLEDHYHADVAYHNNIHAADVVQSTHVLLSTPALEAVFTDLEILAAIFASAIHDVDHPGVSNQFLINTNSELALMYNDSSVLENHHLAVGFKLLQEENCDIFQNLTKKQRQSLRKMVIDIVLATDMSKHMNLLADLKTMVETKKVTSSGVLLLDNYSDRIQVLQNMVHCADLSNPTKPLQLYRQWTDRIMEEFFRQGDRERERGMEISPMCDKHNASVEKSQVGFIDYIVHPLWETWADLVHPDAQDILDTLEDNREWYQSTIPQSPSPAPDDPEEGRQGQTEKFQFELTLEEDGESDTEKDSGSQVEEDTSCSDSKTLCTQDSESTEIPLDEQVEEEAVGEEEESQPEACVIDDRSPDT
Sequence of PDE4B (Q07343 whole entry): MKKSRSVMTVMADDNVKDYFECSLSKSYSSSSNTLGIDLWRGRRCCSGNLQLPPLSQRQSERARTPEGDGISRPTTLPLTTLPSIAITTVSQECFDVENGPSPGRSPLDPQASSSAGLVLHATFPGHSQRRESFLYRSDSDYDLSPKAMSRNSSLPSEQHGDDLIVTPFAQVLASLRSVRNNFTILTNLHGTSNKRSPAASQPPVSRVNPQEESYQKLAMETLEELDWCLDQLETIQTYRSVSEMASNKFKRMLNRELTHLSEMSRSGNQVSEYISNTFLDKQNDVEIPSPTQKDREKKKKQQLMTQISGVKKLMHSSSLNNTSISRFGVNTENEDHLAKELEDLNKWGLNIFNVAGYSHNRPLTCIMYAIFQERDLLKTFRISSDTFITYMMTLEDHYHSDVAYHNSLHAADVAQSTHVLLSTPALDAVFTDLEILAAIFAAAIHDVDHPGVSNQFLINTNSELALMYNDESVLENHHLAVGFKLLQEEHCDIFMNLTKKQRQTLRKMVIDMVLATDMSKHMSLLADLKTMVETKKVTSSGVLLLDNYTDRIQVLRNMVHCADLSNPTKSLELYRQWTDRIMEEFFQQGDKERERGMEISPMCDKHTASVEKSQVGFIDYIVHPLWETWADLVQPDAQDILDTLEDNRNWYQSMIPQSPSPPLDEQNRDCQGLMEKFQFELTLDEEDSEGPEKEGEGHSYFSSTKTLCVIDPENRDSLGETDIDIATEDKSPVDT

For `COc1ccc(Cn2ccc(C#N)cc2=O)cc1-c1cccc([N+](=O)[O-])c1` [P-196, 1-(6-Methoxy-3′-nitro-biphenyl-3-ylmethyl)-2-oxo-1,2-dihydro-pyridine-4-carbonitrile], the values for the IC50 in assay [1] (setting [3]) and in assay [2] (setting [4]) were 5 to 20 µM and < 5 µM, respectively.

With `COc1ccc(COc2ccc(N)cc2)c(F)c1-c1cccc(Br)c1` [P-199], the IC50 in assay [1] (setting [3]) and in assay [2] (setting [4]) was < 5 µM throughout.

`COc1ccc(Cc2ccc(NS(C)(=O)=O)cc2)c(F)c1-c1cccc(Br)c1` [P-200]: the IC50 in assay [1] (setting [3]) and in assay [2] (setting [4]) was < 5 µM throughout.

With `Cn1nccc1Cc1ccc(OC(F)F)c(-c2ccc3c(c2)OCO3)c1` [P-201, 5-(3-Benzo[1,3]dioxol-5-yl-4-difluoromethoxy-benzyl)-1-methyl-1H-pyrazole], the IC50 in assay [1] (setting [3]) fell in the range of 21 to 40 µM; in assay [2] (setting [4]), 5 to 20 µM.

With `COc1ccc(Cn2ccc(C(N)=O)cc2=O)cc1-c1cccc([N+](=O)[O-])c1` [P-207, 1-(6-Methoxy-3′-nitro-biphenyl-3-ylmethyl)-2-oxo-1,2-dihydro-pyridine-4-carboxylic acid amide], the results for the IC50 in assay [1] (setting [3]) and in assay [2] (setting [4]) were < 5 µM and 5 to 20 µM, respectively.

In the case of `COc1ccc(Cn2cc(NC(N)=O)ccc2=O)cc1-c1cccc([N+](=O)[O-])c1` [P-208, [1-(6-Methoxy-3′-nitro-biphenyl-3-ylmethyl)-6-oxo-1,6-dihydro-pyridin-3-yl]-urea], the IC50 in assay [1] (setting [3]) and in assay [2] (setting [4]) was 5 to 20 µM in each case.

On to `COc1ccc(Cn2ccccc2=O)cc1-c1cccc(Cl)c1` [P-209, 1-(3′-Chloro-6-methoxy-biphenyl-3-ylmethyl)-1H-pyridin-2-one], for which the IC50 in assay [1] (setting [3]) was < 5 µM; in assay [2] (setting [4]) it was 5 to 20 µM.

Take `COc1ccc(Cn2cc(NC(C)=O)ccc2=O)cc1-c1cccc([N+](=O)[O-])c1` [P-211, N-[1-(6-Methoxy-3′-nitro-biphenyl-3-ylmethyl)-6-oxo-1,6-dihydro-pyridin-3-yl]-acetamide]: the IC50 in assay [1] (setting [3]) and in assay [2] (setting [4]) was 5 to 20 µM each time.

Consider `COc1ccc(Cn2cc(C(N)=O)ccc2=O)cc1-c1cccc([N+](=O)[O-])c1` [P-212, 1-(6-Methoxy-3′-nitro-biphenyl-3-ylmethyl)-6-oxo-1,6-dihydro-pyridine-3-carboxylic acid amide], for which the IC50 in assay [1] (setting [3]) and in assay [2] (setting [4]) was 5 to 20 µM throughout.

For the molecule `COc1ccc(Cn2ccc(CN)cc2=O)cc1-c1cccc([N+](=O)[O-])c1` [P-213, 4-Aminomethyl-1-(6-methoxy-3′-nitro-biphenyl-3-ylmethyl)-1H-pyridin-2-one], the IC50 was < 5 µM in assay [1] (setting [3]) and 5 to 20 µM in assay [2] (setting [4]).

In the case of `COc1ccc(Cn2ccc(N)cc2=O)cc1-c1cccc([N+](=O)[O-])c1` [P-215, 4-Amino-1-(6-methoxy-3′-nitro-biphenyl-3-ylmethyl)-1H-pyridin-2-one], the IC50 in assay [1] (setting [3]) and in assay [2] (setting [4]) was 5 to 20 µM each time.

Turning to `COc1ccc(Cc2ccc(O)cc2)c(F)c1-c1cccc(Cl)c1` [P-216], the IC50 in assay [1] (setting [3]) and in assay [2] (setting [4]) was < 5 µM each time.

For the molecule `COc1ccc(Cc2cccc(O)c2)c(F)c1-c1cccc(Cl)c1` [P-217], the IC50 in assay [1] (setting [3]) and in assay [2] (setting [4]) was < 5 µM each time.

For `COc1ccc(CN2CCCC2=O)cc1-c1cccc(Cl)c1` [P-218, 1-(3′-chloro-6-methoxy-biphenyl-3-ylmethyl)-pyrrolidin-2-one], the IC50 in assay [1] (setting [3]) and in assay [2] (setting [4]) was < 5 µM throughout.

Regarding `COc1ccc(Cc2ccc(OC(N)=O)cc2)c(F)c1-c1cccc(Cl)c1` [P-221], the IC50 in assay [1] and in assay [2] was < 5 µM throughout.

Turning to `COc1ccc(Cc2cccc(OC(N)=O)c2)c(F)c1-c1cccc(Cl)c1` [P-222], the IC50 in assay [1] and in assay [2] was < 5 µM throughout.

Take `COc1ccc(CN2CCCC2=O)cc1-c1ccc(F)c(F)c1` [P-223, 1-(3′,4′-difluoro-6-methoxy-biphenyl-3-ylmethyl)-pyrrolidin-2-one]: the IC50 in assay [1] (setting [3]) and in assay [2] (setting [4]) was 5 to 20 µM in each case.

As to `COc1ccc(COc2ccccn2)cc1-c1cccc([N+](=O)[O-])c1` [P-224, 2-(6-Methoxy-3′-nitro-biphenyl-3-ylmethoxy)-pyridine], the IC50 in assay [1] (setting [3]) and in assay [2] (setting [4]) was 5 to 20 µM throughout.

As to `COc1ccc(Cc2ccc(OC)c(-c3cccc(Cl)c3)c2F)cn1` [P-225], the IC50 in assay [1] (setting [3]) and in assay [2] (setting [4]) was < 5 µM throughout.

`COc1ccc(Cc2ccc(Cl)nc2)c(F)c1-c1cccc(Cl)c1` [P-226]: the IC50 in assay [1] (setting [3]) is 5 to 20 µM; in assay [2] (setting [4]) it was < 5 µM.

Consider `COc1ccc(Cc2ccc(NS(C)(=O)=O)cc2)c(F)c1-c1cccc(Cl)c1` [P-227], for which the IC50 in assay [1] (setting [3]) and in assay [2] (setting [4]) was < 5 µM throughout.

Turning to `COc1ccc(Cc2ccc(NC(C)=O)cc2)c(F)c1-c1cccc(Cl)c1` [P-228], the IC50 in assay [1] (setting [3]) and in assay [2] (setting [4]) was < 5 µM in each case.

Consider `COc1ccc(CN2CCCC2=O)c(O)c1-c1cccc([N+](=O)[O-])c1` [P-229], for which the IC50 in assay [1] (setting [3]) and in assay [2] (setting [4]) was < 5 µM each time.

On to `COc1ccc(Cc2cccc(NC(C)=O)c2)c(F)c1-c1cccc(Cl)c1` [P-233], for which the IC50 in assay [1] (setting [3]) and in assay [2] (setting [4]) was < 5 µM each time.

For `COc1ccc(Cc2cccc(N)c2)c(F)c1-c1cccc(Cl)c1` [P-234], the IC50 in assay [1] (setting [3]) and in assay [2] (setting [4]) was < 5 µM in each case.

For `COc1ccc(Cn2c(N)cccc2=O)cc1-c1cccc([N+](=O)[O-])c1` [P-236, 6-Amino-1-(6-methoxy-3′-nitro-biphenyl-3-ylmethyl)-1H-pyridin-2-one], the IC50 in assay [1] (setting [3]) fell in the range of 21 to 40 µM; in assay [2] (setting [4]), 20 to 40 µM.

As for `COc1ccc(Cc2ccc(CNC(N)=O)cc2)c(F)c1-c1cccc([N+](=O)[O-])c1` [P-237], the IC50 in assay [1] (setting [3]) and in assay [2] (setting [4]) was < 5 µM in each case.

Consider `COc1ccc(Cc2ccc(C(N)=O)cc2)cc1-c1cccc(Cl)c1` [P-240, 4-(3′-Chloro-6-methoxy-biphenyl-3-ylmethyl)-benzamide], for which the IC50 in assay [1] (setting [3]) was 5 to 20 µM; in assay [2] (setting [4]), < 5 µM.

Regarding `COc1ccc(Cc2ccc3c(c2)OCO3)c(F)c1-c1cccc(Cl)c1` [P-242], the IC50 in assay [1] (setting [3]) and in assay [2] (setting [4]) was < 5 µM throughout.

With `COc1ccc(Cc2ccc(NC(N)=O)cc2)c(F)c1-c1cccc(Cl)c1` [P-243, [4-(3′-chloro-2-fluoro-6-methoxy-biphenyl-3-ylmethyl)-phenyl]-urea], the IC50 in assay [1] (setting [3]) and in assay [2] (setting [4]) was < 5 µM throughout.

Regarding `COc1ccc(CCn2ccccc2=O)cc1-c1cccc([N+](=O)[O-])c1` [P-244, 1-[2-(6-Methoxy-3′-nitro-biphenyl-3-yl)-ethyl]-1H-pyridin-2-one], the IC50 in assay [1] (setting [3]) and in assay [2] (setting [4]) was < 5 µM throughout.

With `COc1ccc(CN2CCCC2=O)cc1-c1cccc(SC)c1` [P-245, 1-(6-methoxy-3′-methylsulfanyl-biphenyl-3-ylmethyl)-pyrrolidin-2-one], the figures for the IC50 in assay [1] (setting [3]) and in assay [2] (setting [4]) were < 5 µM and 5 to 20 µM, respectively.

With `COc1ccc(Cc2ccc(NS(C)(=O)=O)cc2)cc1-c1cccc(Cl)c1` [P-246, N-[4-(3′-Chloro-6-methoxy-biphenyl-3-ylmethyl)-phenyl]-methanesulfonamide], the IC50 was < 5 µM in assay [1] (setting [3]) and 5 to 20 µM in assay [2] (setting [4]).

`COc1ccc(CN2C[C@@H](O)CC2=O)cc1-c1cccc([N+](=O)[O-])c1` [P-248, (S)-4-Hydroxy-1-(6-methoxy-3′-nitro-biphenyl-3-ylmethyl)-pyrrolidin-2-one]: the IC50 in assay [1] (setting [3]) and in assay [2] (setting [4]) was < 5 µM in each case.

`COc1ccc(Cc2ccc(NS(C)(=O)=O)cc2)c(F)c1-c1cccc(C(C)=O)c1` [P-249]: the IC50 in assay [1] (setting [3]) and in assay [2] (setting [4]) was < 5 µM each time.

Turning to `CCNC(=O)Nc1ccc(Cc2ccc(OC)c(-c3cccc(Cl)c3)c2F)cc1` [P-250], the IC50 in assay [1] (setting [3]) and in assay [2] (setting [4]) was < 5 µM in each case.

As to `COc1ccc(CNS(=O)(=O)c2ccc(NC(C)=O)cc2)c(F)c1-c1cccc(Cl)c1` [P-251, N-{4-[(3′-Chloro-2-fluoro-6-methoxy-biphenyl-3-ylmethyl)-sulfamoyl]-phenyl}-acetamide], the IC50 in assay [1] (setting [3]) and in assay [2] (setting [4]) was < 5 µM throughout.

As to `COc1ccc(Cc2ccc(N)nc2)c(F)c1-c1cccc(Cl)c1` [P-252, 5-(3′-Chloro-2-fluoro-6-methoxy-biphenyl-3-ylmethyl)-pyridin-2-ylamine], the IC50 in assay [1] (setting [3]) and in assay [2] (setting [4]) was < 5 µM in each case.

As to `COc1ccc(Oc2ccc(NS(C)(=O)=O)cc2)c(F)c1-c1cccc(Cl)c1` [P-254, N-[4-(3′-Chloro-2-fluoro-6-methoxy-biphenyl-3-yloxy)-phenyl]-methanesulfonamide], the IC50 in assay [1] (setting [3]) was < 5 µM; in assay [2] (setting [4]) it was 5 to 20 µM.

For `COc1ccc(Cc2cccc(N)c2)cc1-c1cccc(Cl)c1` [P-255, 3-(3′-Chloro-6-methoxy-biphenyl-3-ylmethyl)-phenylamine], the IC50 in assay [1] (setting [3]) and in assay [2] (setting [4]) was < 5 µM in each case.

With `COc1ccc(Cc2ccc(N)c(O)c2)c(F)c1-c1cccc(Cl)c1` [P-256], the IC50 is 5 to 20 µM in assay [1] (setting [3]) and < 5 µM in assay [2] (setting [4]).

Take `COc1ccc(Cc2ccc(NS(C)(=O)=O)nc2)c(F)c1-c1cccc(Cl)c1` [P-258, N-[5-(3′-chloro-2-fluoro-6-methoxy-biphenyl-3-ylmethyl)-pyridin-2-yl]-methanesulfonamide]: the IC50 in assay [1] (setting [3]) and in assay [2] (setting [4]) was < 5 µM each time.

As to `COc1ccc(Cc2ccc(NC(N)=O)nc2)c(F)c1-c1cccc(Cl)c1` [P-259], the IC50 in assay [1] (setting [3]) and in assay [2] (setting [4]) was < 5 µM throughout.

In the case of `COc1ccc(Nc2ccc(N)cc2)cc1-c1cccc(C(C)=O)c1` [P-260, 1-[5′-(4-Amino-phenylamino)-2′-methoxy-biphenyl-3-yl]-ethanone hydrochloride], the figures for the IC50 in assay [1] (setting [3]) and in assay [2] (setting [4]) were 5 to 20 µM and < 5 µM, respectively.

For `COc1ccc(Cc2ccc(N)cc2)c(F)c1-c1cccc(C(C)=O)c1` [P-261, 1-[3′-(4-Amino-benzyl)-2′-fluoro-6′-methoxy-biphenyl-3-yl]-ethanone; hydrochloride], the IC50 in assay [1] (setting [3]) and in assay [2] (setting [4]) was < 5 µM in each case.
